Measured values published in patent US8445489B2, “Aryl ether pyridazinone derivatives” (Merck Patent GmbH, priority 2007, dated 2013).

Tests used:
[1] = biological target: T1, Met kinase (Homo sapiens, UniProt P08581); assay: Met kinase inhibition (enzyme assay), flashplate method; format: biochemical
T1 construct: 6His (N); purchased Upstate 14-526; host or cells: Sf21 insect cells (S. frugiperda), baculovirus
Source text: According to the manufacturer's data (Met, active, upstate, catalogue No. 14-526), Met kinase is expressed for the purposes of protein production in insect cells (Sf21; S. frugiperda) and subsequent affinity-chromatographic purification as “N-terminal 6His-tagged” recombinant human protein in a baculovirus expression vector.
The test plates used are 96-well Flashplate® microtitre plates from Perkin Elmer (Cat. No. SMP200). The components of the kinase reaction described below are pipetted into the assay plate. The Met kinase and the substrate poly Ala-Glu-Lys-Tyr, (pAGLT, 6:2:5:1), are incubated for 3 hrs at room temperature with radioactively labelled ^33P-ATP in the presence and absence of test substances in a total volume of 100 μl. The reaction is terminated using 150 μl of a 60 mM EDTA solution. After incubation for a further 30 min at room temperature, the supernatants are filtered off with suction, and the wells are washed three times with 200 μl of 0.9% NaCl solution each time. The measurement of the bound radioactivity is carried out by means of a scintillation measuring instrument (Topcount NXT, Perkin-Elmer).
The full value used is the inhibitor-free kinase reaction. This should be approximately in the range 6000-9000 cpm. The pharmacological zero value used is staurosporin in a final concentration of 0.1 mM. The inhibitory values (IC50) are determined using the RS1_MTS program.
Kinase Reaction Conditions Per Well:
10 μl of substance to be tested in assay buffer with 10% of DMSO
10 μl of ATP (final concentration 1 μM cold, 0.35 μCi of ^33P-ATP)
50 μl of Met kinase/substrate mixture in assay buffer;
• (10 ng of enzyme/well, 50 ng of pAGLT/well)
50 mM HEPES • 3 mM magnesium chloride • 3 μM sodium orthovanadate • 3 mM manganese(II) chloride • 1 mM dithiothreitol (DTT) pH=7.5 (to be set using sodium hydroxide)
60 mM Titriplex III (EDTA) • ^33P-ATP: Perkin-Elmer; • Met kinase: Upstate, Cat. No. 14-526, Stock 1 μg/10 μl; spec. activity 954 U/mg; • Poly-Ala-Glu-Lys-Tyr, 6:2:5:1: Sigma Cat. No. P1152 In-Vivo Tests (FIG. 1/1) Experimental Procedure: […]

[2] = test system: TPR-Met/NIH3T3 cells; assay: In-vivo test, TPR-Met/NIH3T3 tumour model in mice; conditions: 200 mg/kg daily by gastric tube, 9 days; tumour volume; female Balb/C mice, s.c. TPR-Met/NIH3T3 cells
Experimental: Female Balb/C mice (breeder: Charles River Wiga) were 5 weeks old on arrival. They were acclimatised to our keeping conditions for 7 days. Each mouse was subsequently injected subcutaneously in the pelvic area with 4 million TPR-Met/NIH3T3 cells in 100 μl of PBS (without Ca++ and Mg++). […] 100 μl of vehicle (0.25% methylcellulose/100 mM acetate buffer, pH 5.5) were administered daily to the control group, and 200 mg/kg of “A56” or “A91” dissolved in the vehicle (volume likewise 100 μl/animal) were administered daily to the treatment groups, in each case by gastric tube.
The length (L) and breadth (B) were measured using a Vernier calliper, and the tumour volume was calculated from the formula L×B×B/2.
4 or 5 animals per cage, feeding with commercial mouse food (Sniff).

T1 sequence (P08581 956-1390 limits assumed): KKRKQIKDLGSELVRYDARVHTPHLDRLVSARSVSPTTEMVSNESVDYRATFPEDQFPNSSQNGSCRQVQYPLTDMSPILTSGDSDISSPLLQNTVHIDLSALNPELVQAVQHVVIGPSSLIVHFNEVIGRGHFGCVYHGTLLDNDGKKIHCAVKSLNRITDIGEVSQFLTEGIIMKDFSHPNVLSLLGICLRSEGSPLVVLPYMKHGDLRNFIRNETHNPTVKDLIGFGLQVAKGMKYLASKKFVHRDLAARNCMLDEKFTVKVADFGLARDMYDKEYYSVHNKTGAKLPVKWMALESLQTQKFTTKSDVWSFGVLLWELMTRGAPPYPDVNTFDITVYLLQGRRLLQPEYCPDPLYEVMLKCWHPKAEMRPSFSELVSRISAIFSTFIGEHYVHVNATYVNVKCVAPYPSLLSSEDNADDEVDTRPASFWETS

CCOC(=O)Nc1cccc(Cn2nc(-c3ccc(OCCN4CCOCC4)cc3)ccc2=O)c1 [Compound A1]
IC50 [1]: 10 to 1000 nM

CCOC(=O)Nc1cccc(Cn2nc(-c3ccc(OCCCO)cc3)ccc2=O)c1 [Compound A2]
IC50 [1]: 10 to 1000 nM

CCOC(=O)Nc1cccc(Cn2nc(-c3ccc(OCCCN(C)C)cc3)ccc2=O)c1 [Compound A3]
IC50 [1]: 10 to 1000 nM

CCOC(=O)Nc1cccc(Cn2nc(-c3ccc(OCCCCCNC(=O)OC(C)(C)C)cc3)ccc2=O)c1 [Compound A4]
IC50 [1]: 10 to 1000 nM

CCOC(=O)Nc1cccc(Cn2nc(-c3ccc(OCCOC)cc3)ccc2=O)c1 [Compound A5]
IC50 [1]: 10 to 1000 nM

CCOC(=O)Nc1cccc(Cn2nc(-c3ccc(OCCNC(=O)OC(C)(C)C)cc3)ccc2=O)c1 [Compound A6]
IC50 [1]: 10 to 1000 nM

CCOC(=O)Nc1cccc(Cn2nc(-c3ccc(OCCCCOC)cc3)ccc2=O)c1 [Compound A7]
IC50 [1]: 10 to 1000 nM

CCOC(=O)Nc1cccc(Cn2nc(-c3ccc(OCCN(C)C)cc3)ccc2=O)c1 [Compound A8]
IC50 [1]: 10 to 1000 nM

CCOC(=O)Nc1cccc(Cn2nc(-c3ccc(OCCO)cc3)ccc2=O)c1 [Compound A9]
IC50 [1]: 10 to 1000 nM

CCOC(=O)Nc1cccc(Cn2nc(-c3ccc(OCCCCO)cc3)ccc2=O)c1 [Compound A10]
IC50 [1]: 10 to 1000 nM

CCOC(=O)Nc1cccc(Cn2nc(-c3ccc(OCCCOC)cc3)ccc2=O)c1 [Compound A11]
IC50 [1]: 10 to 1000 nM

CCOC(=O)Nc1cccc(Cn2nc(-c3ccc(OCCCCNC(=O)OC(C)(C)C)cc3)ccc2=O)c1 [Compound A12]
IC50 [1]: 10 to 1000 nM

CCOC(=O)Nc1cccc(Cn2nc(-c3ccc(OCCN(C(C)C)C(C)C)cc3)ccc2=O)c1 [Compound A13]
IC50 [1]: 10 to 1000 nM

CCOC(=O)Nc1cccc(Cn2nc(-c3ccc(OCC(=O)N(C)C)cc3)ccc2=O)c1 [Compound A14]
IC50 [1]: 10 to 1000 nM

CCOC(=O)Nc1cccc(Cn2nc(-c3ccc(OC4CCCN(CC)C4)cc3)ccc2=O)c1 (stereo not shown) [Compound A15]
IC50 [1]: 10 to 1000 nM

CCOC(=O)Nc1cccc(Cn2nc(-c3ccc(OCCCN4CCCCC4)cc3)ccc2=O)c1 [Compound A16]
IC50 [1]: 10 to 1000 nM

CCOC(=O)Nc1cccc(Cn2nc(-c3ccc(OCCC4CCCN4C)cc3)ccc2=O)c1 (stereo not shown) [Compound A17]
IC50 [1]: 10 to 1000 nM

CCOC(=O)Nc1cccc(Cn2nc(-c3ccc(OCC(C)CN4CCOCC4)cc3)ccc2=O)c1 (stereo not shown) [Compound A18]
IC50 [1]: 10 to 1000 nM

CCOC(=O)Nc1cccc(Cn2nc(-c3cccc(OCCCO)c3)ccc2=O)c1 [Compound A19]
IC50 [1]: 10 to 1000 nM

CCOC(=O)Nc1cccc(Cn2nc(-c3cccc(OCCCCOC)c3)ccc2=O)c1 [Compound A20]
IC50 [1]: 10 to 1000 nM

CCOC(=O)Nc1cccc(Cn2nc(-c3cccc(OCCOC)c3)ccc2=O)c1 [Compound A21]
IC50 [1]: 10 to 1000 nM

CCOC(=O)Nc1cccc(Cn2nc(-c3cccc(OCCCCO)c3)ccc2=O)c1 [Compound A22]
IC50 [1]: 10 to 1000 nM

CCOC(=O)Nc1cccc(Cn2nc(-c3cccc(OCCCCNC(=O)OC(C)(C)C)c3)ccc2=O)c1 [Compound A23]
IC50 [1]: 10 to 1000 nM

CCOC(=O)Nc1cccc(Cn2nc(-c3cccc(OCCN4CCOCC4)c3)ccc2=O)c1 [Compound A24]
IC50 [1]: 10 to 1000 nM

CCOC(=O)Nc1cccc(Cn2nc(-c3cccc(OCCCOC)c3)ccc2=O)c1 [Compound A25]
IC50 [1]: 10 to 1000 nM

CCOC(=O)Nc1cccc(Cn2nc(-c3cccc(OCCNC(=O)OC(C)(C)C)c3)ccc2=O)c1 [Compound A26]
IC50 [1]: 10 to 1000 nM

CCOC(=O)Nc1cccc(Cn2nc(-c3cc(F)c(OCCCN(C)C)c(F)c3)ccc2=O)c1 [Compound A27]
IC50 [1]: 10 to 1000 nM

CCOC(=O)Nc1cccc(Cn2nc(-c3cc(F)c(OCCCN4CCOCC4=O)c(F)c3)ccc2=O)c1 [Compound A28]
IC50 [1]: 10 to 1000 nM

CCOC(=O)Nc1cccc(Cn2nc(-c3cc(F)c(OCCCNC)c(F)c3)ccc2=O)c1 [Compound A29a]
IC50 [1]: 10 to 1000 nM

CCOC(=O)Nc1cccc(Cn2nc(-c3cc(F)c(OCCCCCNC(=O)OC(C)(C)C)c(F)c3)ccc2=O)c1 [Compound A31]
IC50 [1]: 10 to 1000 nM

CCOC(=O)Nc1cccc(Cn2nc(-c3cc(F)c(OCCN(C)C)c(F)c3)ccc2=O)c1 [Compound A33]
IC50 [1]: 10 to 1000 nM

CCOC(=O)Nc1cccc(Cn2nc(-c3cc(F)c(OCCOC)c(F)c3)ccc2=O)c1 [Compound A34]
IC50 [1]: 10 to 1000 nM

CCOC(=O)Nc1cccc(Cn2nc(-c3cc(F)c(OCCCCO)c(F)c3)ccc2=O)c1 [Compound A35]
IC50 [1]: 10 to 1000 nM

CCOC(=O)Nc1cccc(Cn2nc(-c3cc(F)c(OCCCOC)c(F)c3)ccc2=O)c1 [Compound A37]
IC50 [1]: 10 to 1000 nM

CCOC(=O)Nc1cccc(Cn2nc(-c3cc(F)c(OCCCO)c(F)c3)ccc2=O)c1 [Compound A38]
IC50 [1]: 10 to 1000 nM

CCOC(=O)Nc1cccc(Cn2nc(-c3cc(F)c(OCCCN4CCCC4)c(F)c3)ccc2=O)c1 [Compound A43]
IC50 [1]: 10 to 1000 nM

CCOC(=O)Nc1cccc(Cn2nc(-c3ccc(OCCCCCN)cc3)ccc2=O)c1 [Compound A44]
IC50 [1]: 10 to 1000 nM

CCOC(=O)Nc1cccc(Cn2nc(-c3cc(F)c(OCCN)c(F)c3)ccc2=O)c1 [Compound A45]
IC50 [1]: 10 to 1000 nM

CCOC(=O)Nc1cccc(Cn2nc(-c3ccc(OCCN)cc3)ccc2=O)c1 [Compound A48]
IC50 [1]: 10 to 1000 nM

CCOC(=O)Nc1cccc(Cn2nc(-c3cccc(OCCCCN)c3)ccc2=O)c1 [Compound A49]
IC50 [1]: 10 to 1000 nM

CCOC(=O)Nc1cccc(Cn2nc(-c3ccc(OCCCCN)cc3)ccc2=O)c1 [Compound A50]
IC50 [1]: 10 to 1000 nM

CCOC(=O)Nc1cccc(Cn2nc(-c3cc(F)c(OCCCCCN)c(F)c3)ccc2=O)c1 [Compound A52]
IC50 [1]: 10 to 1000 nM

CCOC(=O)Nc1cccc(Cn2nc(-c3cc(F)c(OCCCN)c(F)c3)ccc2=O)c1 [Compound A53]
IC50 [1]: 10 to 1000 nM

CN(C)CCCOc1c(F)cc(-c2ccc(=O)n(Cc3ccc4[nH]c(=O)[nH]c4c3)n2)cc1F [Compound A55, 5-{3-[4-(3-dimethylaminopropoxy)-3,5-difluorophenyl]-6-oxo-6H-pyridazin-1-ylmethyl}-1,3-dihydrobenzimidazol-2-one]
IC50 [1]: 10 to 1000 nM

CN1CCN(CCCOc2c(F)cc(-c3ccc(=O)n(Cc4ccc5[nH]c(=O)[nH]c5c4)n3)cc2F)CC1 [Compound A56, 5-(3-{3,5-difluoro-4-[3-(4-methylpiperazin-1-yl)propoxy]-phenyl}-6-oxo-6H-pyridazin-1-ylmethyl)-1,3-dihydrobenzimidazol-2-one]
IC50 [1]: 10 to 1000 nM | antitumoural action [2]: significant antitumoural action
